Assay results reported in patent US20220325233A1, “MEDIUM SUPPLEMENT FOR HIGH-YIELD INDUSTRIAL CULTURE OF FASTIDIOUS ANAEROBES AND MEDIUM COMPOSITION CONTAINING THE SAME” (priority 2020, published 2022).

Tested on: Akkermansia muciniphila EB-AMDK19 (KCTC 13761BP) strain
Test: Growth (change in optical density, ΔOD600) in anaerobic batch culture
Type: cell-based
Settings: for Growth (ΔOD600): after 72 hours of culture; for Growth (AOD 600): after 48 hours of culture
Description: In addition, in the following examples, the concentration of anaerobes (amount of biomass produced) was determined by measuring the optical density of the culture medium at 600 nm using a spectrophotometer during the culture period. ΔOD was calculated as the difference in absorbance between the initial stage of culture and after 48 hours (or 72 hours) of culture.
Based on soy casein digest broth (tryptic soy broth (TSB)), the optimal combination of substrates and components that can replace mucin was investigated.
Next, changes in the optical density (OD600) of the strain were measured, and the results of the measurement are shown in Table 3 below.
In addition, to find the optimal concentration of cobalamin, the strain was cultured while changing the concentrations of cobalamin, and then changes in the optical density (OD600) of the strain were measured.
In order to find the essential components necessary for high-concentration culture of anaerobes and an optimal combination thereof, the Akkermansia muciniphila strain was cultured in media having various combinations of components under the same conditions.
An experiment was performed in the same manner as in Example 1 above, except that the medium shown in Table 2 above were used and the kind of strain cultured was changed as shown in Table 7 below. Specifically, each Akkermansia muciniphila strain was inoculated into the medium at a ratio of 0.1% v/v, and then cultured at 37° C. under anaerobic conditions (90% N2, 5% CO2, and 5% H2) for 24 to 48 hours.

[1] = single vitamin added at 0.1 mg/L
[2] = single vitamin added at 0.2 mg/L

## Cc1ncc(CO)c(CO)c1O [Medium B6]
Single vitamin added at 0.5 mg/L
  Growth (ΔOD600): 0.337

## Cc1cc2nc3c(=O)[nH]c(=O)nc-3n(C[C@H](O)[C@H](O)[C@H](O)CO)c2cc1C [Medium B2]
[1]
  Growth (ΔOD600): 0.334

## O=C(O)c1cccnc1 [Medium B3]
[2]
  Growth (ΔOD600): 0.342

## Cyanocobalamin
Cyanocobalamin 0.05 mg/L
  Growth (AOD 600): 0.563 ± 0.012
Cyanocobalamin 0.1 mg/L
  Growth (AOD 600): 0.576 ± 0.014
Cyanocobalamin 0.2 mg/L
  Growth (AOD 600): 0.577 ± 0.008
Cyanocobalamin 0.5 mg/L
  Growth (AOD 600): 0.575 ± 0.011
Cyanocobalamin 1 mg/L
  Growth (AOD 600): 0.581 ± 0.003
Cyanocobalamin 5 mg/L
  Growth (AOD 600): 0.571 ± 0.007
From Table 5 concentration series
  optimal concentration in the medium: 0.1 mg/L
[1]
  Growth (ΔOD600): 0.575

## Cc1ncc(C[n+]2csc(CCO)c2C)c(N)n1 [Medium B1]
[2]
  Growth (ΔOD600): 0.352

## Nc1ccc(C(=O)O)cc1 [Medium B10]
[1]
  Growth (ΔOD600): 0.335

## CC(C)(CO)[C@@H](O)C(=O)NCCC(=O)O [Medium B5]
[1]
  Growth (ΔOD600): 0.347

## Nc1nc(=O)c2nc(CNc3ccc(C(=O)N[C@@H](CCC(=O)O)C(=O)O)cc3)cnc2[nH]1 [Medium B9]
Single vitamin added at 0.05 mg/L
  Growth (ΔOD600): 0.348

## O=C(O)CCCC[C@@H]1SC[C@@H]2NC(=O)N[C@@H]21 [Medium B7]
Single vitamin added at 0.02 mg/L
  Growth (ΔOD600): 0.344
